Measurements as given in patent US11821895B2, “Functional cortical organoids, methods of making, and uses thereof” (priority 2017, dated 2023).

Test system: cortical organoids
Assay: Pharmacological perturbation of network activity in cortical organoids, multi-electrode array (MEA) recordings
Format: cell-based, human

| SMILES | number of bursts / burst activity | synchronous activity / synchrony indexes | neuronal electrical activity | network bursts (synchrony) | number of network events |
| --- | --- | --- | --- | --- | --- |
| NC(CCCP(=O)(O)O)C(=O)O (stereo not drawn) [AP5] | significantly reducing the number of bursts | extinction of synchronous activity |  |  |  |
| N#Cc1cc2[nH]c(=O)c(=O)[nH]c2cc1[N+](=O)[O-] [CNQX] | significantly reducing the number of bursts | extinction of synchronous activity |  |  |  |
| NC1=N[C@H](O)[C@H]2[C@H]3O[C@]4(O)O[C@@H]([C@@H](O)[C@@]2(N1)[C@@H]4O)[C@]3(O)CO [TTX, tetrodotoxin] |  |  | blocked |  |  |
| NCC(CC(=O)O)c1ccc(Cl)cc1 (stereo not drawn) [baclofen] | significantly reducing the number of bursts | extinction of synchronous activity |  | reversibly extinguish the network bursts (synchrony) | completely abolishes synchronized network events |
| NCc1cc(=O)[nH]o1 [muscimol] | significantly reducing the number of bursts | extinction of synchronous activity |  | reversibly extinguish the network bursts (synchrony) |  |
